Drawing on ChEMBL document CHEMBL3507680, “University of Dundee, Gates Library screen for HepG2 cell viability”, this text covers cytotoxicity for 99 compounds.

The series can be described thus: Human HepG2 cell viability assay in 384 well format. To be noted: HepG2 cells, read-out: Inhibition. Also noted: dose 125 nL, time 70.5 hour; concentration not given beside the values. It is filed as toxicity, cell-based.

As for `CN(C)C(=O)CSc1nnc(CCNC(=O)OC(C)(C)C)o1`, the cytotoxicity at 70.5 h is 22.7%.

`c1ccc(CN2Cc3ccnn3CC(COCc3cccnc3)C2)nc1` (centres undefined): the cytotoxicity at 70.5 h was -9.03%.

As for `CCc1nn(-c2cc(Oc3cc(C)ccc3C)nc(C)n2)c(N)c1C#N`, the cytotoxicity at 70.5 h stood at 28.3%.

On to `CC1CCN(C(=O)Cn2nc(Br)nc2Br)CC1`, for which the cytotoxicity at 70.5 h was -5.71%.

With `Cn1c(N)c2c(=O)n(C)c(-c3ccc(Cl)cc3Cl)cc2c(C#N)c1=O`, the cytotoxicity at 70.5 h is -4.83%.

On to `Cc1cnc(N2C(=O)CSC2c2ccccc2)s1` (centres undefined), for which the cytotoxicity at 70.5 h was -9.48%.

On to `CN(C)CCCNC(=O)CNC(=O)N1CCc2c([nH]c3ccccc23)C1`, for which the cytotoxicity at 70.5 h is 35.2%.

Turning to `CC(=O)c1cn(CCC(=O)NCCC(=O)O)c2ccccc12`, the cytotoxicity at 70.5 h is -12.4%.

As to `COc1cccc2c1ccn2CC(=O)N[C@@H](CCSC)C(=O)O`, the cytotoxicity at 70.5 h was -3.11%.

On to `O=C1CC(c2cccc(O)c2)c2c(c(C(=O)O)cn2-c2ccccc2)N1` (centres undefined), for which the cytotoxicity at 70.5 h was determined as 4.21%.

As for `O=C1CC(c2cccnc2)c2c(c(C(=O)O)cn2-c2ccccc2)N1` (centres undefined), the cytotoxicity at 70.5 h is -1.92%.

On to `Cc1ccc2c(ccn2CC(=O)NC[C@@H]2CCCN3CCCC[C@H]23)c1`, for which the cytotoxicity at 70.5 h was -2.59%.

In the case of `COC(=O)CC(c1ccccc1)c1oc(C)cc(=O)c1O` (centres undefined), the cytotoxicity at 70.5 h stood at 6.19%.

In the case of `CC[C@H](C)[C@H](NC(=O)c1ccccc1-n1cnnn1)C(=O)OC`, the cytotoxicity at 70.5 h is 33.9%.

Consider `CC(C)[C@H](NC(=O)NC1CCS(=O)(=O)C1)C(=O)Nc1cccnc1` (some centres undefined), for which the cytotoxicity at 70.5 h was 9.45%.

Take `Cn1ccc2c(C(=O)N3CCC(C(N)=O)CC3)cccc21`: the cytotoxicity at 70.5 h was -2.97%.

As to `O=C(COc1coc(CN2CCCC2)cc1=O)NCc1ccccc1Cl`, the cytotoxicity at 70.5 h was found to be 3.62%.

Regarding `O=C(Cn1nc2c(cc1=O)CCCC2)N[C@@H](C(=O)O)c1ccccc1`, the cytotoxicity at 70.5 h is -3.48%.

`COc1ccc(C2CC(=O)Nc3c2cnn3C)cc1` (centres undefined): the cytotoxicity at 70.5 h came out at 4.68%.

On to `CC(=O)c1cccc(NC(=O)COc2c(C)n(C)ccc2=O)c1`, for which the cytotoxicity at 70.5 h was -7.44%.

Consider `O=C(COc1coc(CN2CCCCC2)cc1=O)Nc1ccc(Cl)cc1`, for which the cytotoxicity at 70.5 h is -3.76%.

Consider `Cn1ncc2c1NC(=O)CC2c1ccc(O)cc1` (centres undefined), for which the cytotoxicity at 70.5 h stood at 7.25%.

For the compound `Cc1n[nH]c2c1C(c1cnn(C)c1)SCC(=O)N2` (centres undefined), the cytotoxicity at 70.5 h is -6.84%.

Take `CCn1c(=O)nc2n1C(=O)N(c1cccc(Cl)c1)C2`: the cytotoxicity at 70.5 h was -1.37%.

Consider `COc1ccc(C2SC(C)=Nc3c2c(=O)[nH]n3C2CCCCC2)cc1O` (centres undefined), for which the cytotoxicity at 70.5 h was 2.14%.

In the case of `COCC(=O)NCCn1ccc2c(OC)cccc21`, the cytotoxicity at 70.5 h is -6.28%.

As for `CC(C)n1ncc2c1NC(=O)CC21C(=O)Nc2c(Cl)cc(Cl)cc21` (centres undefined), the cytotoxicity at 70.5 h is -8.73%.

With `CC(C)n1ncc2c1NC(=O)CSC2C(C)(C)C` (centres undefined), the cytotoxicity at 70.5 h was -2.79%.

Take `O=C(CCc1nc2cccnc2[nH]1)Nc1cccnc1`: the cytotoxicity at 70.5 h was -16.2%.

As to `CC(C)CC1SCC(=O)Nc2c1cnn2-c1ccc(F)cc1` (centres undefined), the cytotoxicity at 70.5 h is -6.67%.

Consider `O=C1CSC(c2ccc(O)c(Cl)c2)c2c(n(C3CCOCC3)[nH]c2=O)N1` (centres undefined), for which the cytotoxicity at 70.5 h amounted to 6.82%.

For `O=C1CC(c2ccsc2)c2c(n(C3CCOCC3)[nH]c2=O)N1` (centres undefined), the cytotoxicity at 70.5 h was found to be 14.8%.

In the case of `COc1ccc(C(=O)NCCCn2ccnc2)c(OC)n1`, the cytotoxicity at 70.5 h was found to be 39.9%.

Consider `COc1ccc(OC)c(Sc2ncccc2C(=O)N(C)CCC#N)c1`, for which the cytotoxicity at 70.5 h was determined as 5.96%.

In the case of `CN(C)c1ccc(C(=O)NCC2(c3ccccc3)CCOCC2)cc1`, the cytotoxicity at 70.5 h is -10.7%.

In the case of `COc1ccc(OC)c(NC(=O)N2CCCC2c2ccco2)c1` (centres undefined), the cytotoxicity at 70.5 h was -12.9%.

As for `O=C(CSC1=NS(=O)(=O)c2cc(F)ccc2N1)c1ccc(Cl)cc1`, the cytotoxicity at 70.5 h is -17.3%.

For `COC(=O)c1cccc(C(=O)N2CCN(c3cccc(C)c3C)CC2)n1`, the cytotoxicity at 70.5 h was -14.1%.

For `CCn1nc(C)c2ccn(CC(=O)NC3CCCC3)c(=O)c21`, the cytotoxicity at 70.5 h is -1.39%.

On to `CNC(=O)CSc1nc2c(cnn2Cc2ccc(F)cc2)c(=O)[nH]1`, for which the cytotoxicity at 70.5 h stood at 13.5%.

As to `COC(=O)CCc1c(C)nn(-c2nc(C)cc(=O)[nH]2)c1C`, the cytotoxicity at 70.5 h came to 36.4%.

Regarding `CN1C(=O)C(C)(C)COc2cc(NS(=O)(=O)c3ccccc3)ccc21`, the cytotoxicity at 70.5 h amounted to 8.64%.

As to `CN1C(=O)C(C)(C)COc2cc(NS(=O)(=O)Cc3ccccc3)ccc21`, the cytotoxicity at 70.5 h came out at 9.19%.

For the compound `CCc1cc(=O)[nH]c2nnc(SCC(=O)OC)n12`, the cytotoxicity at 70.5 h was found to be 9.93%.

As to `CCCNC(=O)CSc1nnc2[nH]c(=O)cc(CC)n12`, the cytotoxicity at 70.5 h stood at 11.1%.

For `CCc1cnc2c(c1Nc1ccncc1)c(=O)n(C)c(=O)n2C`, the cytotoxicity at 70.5 h was 20.3%.

Take `CCCNC(=O)Cn1nc(C(C)C)c2cnn(C(C)(C)C)c2c1=O`: the cytotoxicity at 70.5 h was -0.765%.

Regarding `COc1cccc(CNC(=O)CC2CSc3ncc(C)c(=O)n32)c1` (centres undefined), the cytotoxicity at 70.5 h was 10.1%.

As to `CCOC(=O)c1sc(NC(=O)CN(C)S(C)(=O)=O)c(C#N)c1C`, the cytotoxicity at 70.5 h amounted to 26.2%.

Take `O=c1nc(SCc2cccnc2)c2c(n1CCO)CCC2`: the cytotoxicity at 70.5 h was -7.99%.

In the case of `O=c1nc(SCc2ccncc2)c2c(n1CCO)CCCC2`, the cytotoxicity at 70.5 h was determined as 14.9%.

Consider `CCCc1nnsc1C(=O)NCC1CCN(c2ccccn2)CC1`, for which the cytotoxicity at 70.5 h is -6.19%.

`O=C(Cn1cnc(-c2ccccc2)cc1=O)Nc1ccncc1`: the cytotoxicity at 70.5 h was -9.96%.

Consider `COCCNC(=O)CCc1c(C)nn(-c2nc(C)c(C)c(=O)[nH]2)c1C`, for which the cytotoxicity at 70.5 h is -1.63%.

For `COc1cccc(C(=O)NCC(O)c2cccs2)c1` (centres undefined), the cytotoxicity at 70.5 h was -0.864%.

For the compound `O=C(NCC(O)c1cccs1)c1cccc(Cl)c1` (centres undefined), the cytotoxicity at 70.5 h was -2.42%.

As for `Cc1ccc(N2CCN(C(=O)COc3nccc(C)n3)CC2)nn1`, the cytotoxicity at 70.5 h worked out at 16%.

Turning to `O=C(NCC1(CO)CC1)c1cccc2ccccc12`, the cytotoxicity at 70.5 h worked out at 2.2%.

Regarding `Cc1noc(C)c1CCC(=O)N1CCN(CCn2cccn2)CC1`, the cytotoxicity at 70.5 h worked out at 14.6%.

As for `O=S(=O)(NCC1CCN(c2cnccn2)CC1)c1c(F)cccc1F`, the cytotoxicity at 70.5 h is -9.72%.

In the case of `CNc1cc(CCNC(=O)CC(C)C)nc(-c2ccccn2)n1`, the cytotoxicity at 70.5 h was -7.32%.

`CNc1cc(CCNS(=O)(=O)c2ccccc2)nc(-c2ccccn2)n1`: the cytotoxicity at 70.5 h was -14.6%.

Consider `CNc1cc(CCNC(=O)C2CCCC2)nc(-c2ccccn2)n1`, for which the cytotoxicity at 70.5 h is -8.09%.

For `CCC1c2cccn2CCN1S(=O)(=O)N1CCOCC1` (centres undefined), the cytotoxicity at 70.5 h came out at 11.2%.

On to `CCOc1ccc([C@@H]2N[C@H](c3nccs3)Cc3ccsc32)cc1OC`, for which the cytotoxicity at 70.5 h is -7.07%.

With `COc1cccc([C@@H]2N[C@H](c3nccs3)Cc3ccsc32)c1OC`, the cytotoxicity at 70.5 h was -12.9%.

As to `C=Cn1cc(CN2CCN(CC3(c4ccccc4)CC3)CC2)c(C)n1`, the cytotoxicity at 70.5 h is -2.78%.

As to `Cc1csc2c(C3CCN(CCOc4ccccc4F)CC3)nc(C)n12`, the cytotoxicity at 70.5 h came out at 18.2%.

Take `Cc1cc(-c2cc(N)c(=O)n(CC(=O)NC3CCCCC3)n2)c(C)o1`: the cytotoxicity at 70.5 h was -15.5%.

`Cn1ccnc1C(O)c1ccccc1N1CCN(Cc2ccsc2)CC1` (centres undefined): the cytotoxicity at 70.5 h was -5.94%.

As to `CN1C[C@@H](C(=O)NC(C)(C)C)[C@@]2(COc3ccc(F)cc3C2=O)C1`, the cytotoxicity at 70.5 h is -1.75%.

With `O=C(CC1CCCC1)N1CCC(c2noc(-c3ccccn3)n2)CC1`, the cytotoxicity at 70.5 h came out at 6.76%.

Consider `CC(C)(C)C(=O)NCCc1cc2nc(-c3ccncc3)ccn2n1`, for which the cytotoxicity at 70.5 h came to 1.86%.

Regarding `CN(C)Cc1cnc(C2CCN(C(=O)c3cccc(Cl)c3)C2)[nH]1` (centres undefined), the cytotoxicity at 70.5 h was -3.59%.

For `COc1ccccc1CN(C)Cc1ccnc(C2CCCO2)n1` (centres undefined), the cytotoxicity at 70.5 h is -2.34%.

Turning to `Cc1noc(C)c1-c1cc(CCC2CN(CCC(N)=O)CCO2)ncn1` (centres undefined), the cytotoxicity at 70.5 h was -2.2%.

For `COCCC(=O)N1CCOCC(Cc2ccc3c(ccn3C)c2)C1` (centres undefined), the cytotoxicity at 70.5 h is -6.26%.

Turning to `Cc1ccccc1C(=O)N1C[C@@H](O)[C@H](N2CCOCC2)C1`, the cytotoxicity at 70.5 h is -3.66%.

Take `Cc1cc(N(C)Cc2ncc(-c3ccccc3C(=O)O)s2)ncn1`: the cytotoxicity at 70.5 h was 16.7%.

Consider `CC1(C(=O)N2CCOCC2)CN(CC2CCOCC2)CCO1` (centres undefined), for which the cytotoxicity at 70.5 h is -0.606%.

With `c1cc(CN2CCCCC2c2ccc(Nc3cnccn3)nc2)ccn1` (centres undefined), the cytotoxicity at 70.5 h was -4.05%.

Turning to `CN1CCN(C(=O)CCn2nnc3ccccc32)CC(C(N)=O)C1` (centres undefined), the cytotoxicity at 70.5 h was -1.08%.

Consider `CNC(=O)C1CN(C(=O)c2ccncc2)CCN(S(C)(=O)=O)C1` (centres undefined), for which the cytotoxicity at 70.5 h worked out at 22.7%.

On to `Cc1nccc(C2CN(Cc3ccc(-c4ccccc4C(=O)O)o3)C2)n1`, for which the cytotoxicity at 70.5 h is -2.56%.

Consider `CCOc1ccc(CC(=O)N2CCN(c3nccn3C)CC2)cc1`, for which the cytotoxicity at 70.5 h was -2.2%.

On to `O=C(Cc1ccc(F)cc1)N1CCN(CC(O)C2CC2)CC1` (centres undefined), for which the cytotoxicity at 70.5 h is -1.1%.

`Cc1ncc2c(n1)C1(CCN(C(=O)C(C)C)CC1)OCC2`: the cytotoxicity at 70.5 h was -6.13%.

With `Fc1cccc(F)c1Cn1c(C2CCCNC2)cc2cccnc21` (centres undefined), the cytotoxicity at 70.5 h was -5.53%.

As for `Cc1nc2cc(-c3nccn3C)nn2c(N2CCCC(O)C2)c1C` (centres undefined), the cytotoxicity at 70.5 h was determined as 0.494%.

Turning to `COCCn1c(=O)n(C)c(=O)c2ccc(C3CCC(CN)CC3)nc21` (centres undefined), the cytotoxicity at 70.5 h was -6.32%.

Take `FC(F)(F)c1nc(C2CCCNC2)no1` (centres undefined): the cytotoxicity at 70.5 h is -0.742%.

Consider `Cc1nc(Cc2ccc(F)cc2)cc(C2COCCN2)n1` (centres undefined), for which the cytotoxicity at 70.5 h was determined as 2.37%.

As for `OC(CN1CCN(Cc2ccc(F)cc2)CC1)C1CC1` (centres undefined), the cytotoxicity at 70.5 h is -1.06%.

With `OC(CN1CCN(Cc2ccc(F)c(F)c2)CC1)C1CC1` (centres undefined), the cytotoxicity at 70.5 h was 0.728%.

With `Cc1ncsc1CN1C[C@H](OCc2ccncc2)[C@H]2OCCC[C@H]21`, the cytotoxicity at 70.5 h was -8.48%.

On to `Cc1cccc(-c2noc(C)c2C(=O)NC2CCCOC2)c1` (centres undefined), for which the cytotoxicity at 70.5 h is -10.9%.

For the compound `Cc1nc2sccn2c1CNC1(c2ccccc2F)CCCC1`, the cytotoxicity at 70.5 h is -8.91%.

Turning to `CN(C)CCCN(Cc1cnn(C)c1)Cc1ccco1`, the cytotoxicity at 70.5 h is -2.57%.

Turning to `O=C(NCCc1ccccc1)C1CCC(Cn2cnnn2)CC1` (centres undefined), the cytotoxicity at 70.5 h is -2.34%.
